{"source": "patent EP0061882A1", "about": "“Process for preparing isoxazol-3-ylcarboxamides” (ELI LILLY AND COMPANY, priority 1981, dated 1982)", "assay_in_all_cases": "broad spectrum greenhouse test, postemergence application", "format_in_all_cases": "in vivo", "details_in_all_cases": "rated about 10-13 days after application, scale 1-5", "key": {"Barnyard Grass": {"test_system": "Barnyard Grass", "source_text": "(§1) A broad spectrum greenhouse test was run to show the activity of the acyloxadiazoles of formula III.\n(§2) Square plastic pots were filled with a sterilized sandy loam soil and were planted to seeds of the various crops and weeds. Each pot was indi- viduall^y fertilized.\n(§3) Test compounds of formula III were applied postemergence to some pots and preemergence to others. Postemergence applications of the compounds were sprayed over the emerged plants about 12 days after the seeds were planted. Preemergence applications were sprayed on the soil the day after the seeds were planted.\n(§4) Each test compound was dissolved in 1:1 acetone:ethanol at the rate of 2 g. per 100 ml. The solution also contained about 2 g. per 100 ml. of an anionic-nonionic surfactant blend. One ml. of the solution was diluted with deionized water to obtain the dilution desired. The.appropriate amount of the solution was applied to each pot.\n(§5) After the compounds were applied, the pots were moved to the greenhouse, watered as necessary, and observed and rated about 10-13 days after application of the compounds. Untreated control plants were used as standards in every test."}, "Wild Oat": {"test_system": "Wild Oat", "source_text": "as §1, §2, §3, §4, §5"}, "Large Crabgrass": {"test_system": "Large Crabgrass", "set-up": "key: 1 = normal plants; 5 = dead plants or no emergence", "source_text": "as §1, §2, §3, §4, §5"}, "Zinnia": {"test_system": "Zinnia", "set-up": "key: 1 = normal plants; 5 = dead plants or no emergence", "source_text": "as §1, §2, §3, §4, §5"}, "Morningglory": {"test_system": "Morningglory", "set-up": "key: 1 = normal plants; 5 = dead plants or no emergence", "source_text": "as §1, §2, §3, §4, §5"}, "Foxtail": {"test_system": "Foxtail", "set-up": "key: 1 = normal plants; 5 = dead plants or no emergence", "source_text": "as §1, §2, §3, §4, §5"}, "Velvetleaf": {"test_system": "Velvetleaf", "set-up": "key: 1 = normal plants; 5 = dead plants or no emergence", "source_text": "as §1, §2, §3, §4, §5"}, "Mustard": {"test_system": "Mustard", "set-up": "key: 1 = normal plants; 5 = dead plants or no emergence", "source_text": "as §1, §2, §3, §4, §5"}, "Tomato": {"test_system": "Tomato", "set-up": "key: 1 = normal plants; 5 = dead plants or no emergence", "source_text": "as §1, §2, §3, §4, §5"}, "Pigweed": {"test_system": "Pigweed", "set-up": "key: 1 = normal plants; 5 = dead plants or no emergence", "source_text": "as §1, §2, §3, §4, §5"}}, "data": [{"smiles": "CN(C)c1nc(CC(=O)C(C)(C)C)no1", "note": "[5-dimethylamino-3-(2,2-dimethylpropionyl-methyl)-1,2,4-oxadiazole]", "values": [{"measurement": "Postemergence rating, Barnyard Grass", "setting": "Barnyard Grass; Rate of Appln. 1 lbs./acre", "result": 4}, {"measurement": "Postemergence rating, Barnyard Grass", "setting": "Barnyard Grass; Rate of Appln. 2 lbs./acre", "result": 4}, {"measurement": "Postemergence rating, Barnyard Grass", "setting": "Barnyard Grass; Rate of Appln. 4 lbs./acre", "result": 4}, {"measurement": "Postemergence rating, Wild Oat", "setting": "Wild Oat; Rate of Appln. 1 lbs./acre", "result": 2}, {"measurement": "Postemergence rating, Wild Oat", "setting": "Wild Oat; Rate of Appln. 2 lbs./acre", "result": 3}, {"measurement": "Postemergence rating, Wild Oat", "setting": "Wild Oat; Rate of Appln. 4 lbs./acre", "result": 4}, {"measurement": "Postemergence rating, Large Crabgrass", "setting": "Large Crabgrass; Rate of Appln. 1 lbs./acre", "result": 5}, {"measurement": "Postemergence rating, Large Crabgrass", "setting": "Large Crabgrass; Rate of Appln. 2 lbs./acre", "result": 5}, {"measurement": "Postemergence rating, Large Crabgrass", "setting": "Large Crabgrass; Rate of Appln. 4 lbs./acre", "result": 5}, {"measurement": "Postemergence rating, Zinnia", "setting": "Zinnia; Rate of Appln. 1 lbs./acre", "result": 5}, {"measurement": "Postemergence rating, Zinnia", "setting": "Zinnia; Rate of Appln. 2 lbs./acre", "result": 5}, {"measurement": "Postemergence rating, Zinnia", "setting": "Zinnia; Rate of Appln. 4 lbs./acre", "result": 5}, {"measurement": "Postemergence rating, Morningglory", "setting": "Morningglory; Rate of Appln. 1 lbs./acre", "result": 2}, {"measurement": "Postemergence rating, Morningglory", "setting": "Morningglory; Rate of Appln. 2 lbs./acre", "result": 5}, {"measurement": "Postemergence rating, Morningglory", "setting": "Morningglory; Rate of Appln. 4 lbs./acre", "result": 4}, {"measurement": "Postemergence rating, Foxtail", "setting": "Foxtail; Rate of Appln. 1 lbs./acre", "result": 4}, {"measurement": "Postemergence rating, Foxtail", "setting": "Foxtail; Rate of Appln. 2 lbs./acre", "result": 5}, {"measurement": "Postemergence rating, Foxtail", "setting": "Foxtail; Rate of Appln. 4 lbs./acre", "result": 5}, {"measurement": "Postemergence rating, Velvetleaf", "setting": "Velvetleaf; Rate of Appln. 1 lbs./acre", "result": 5}, {"measurement": "Postemergence rating, Velvetleaf", "setting": "Velvetleaf; Rate of Appln. 2 lbs./acre", "result": 5}, {"measurement": "Postemergence rating, Velvetleaf", "setting": "Velvetleaf; Rate of Appln. 4 lbs./acre", "result": 5}, {"measurement": "Postemergence rating, Mustard", "setting": "Mustard; Rate of Appln. 1 lbs./acre", "result": 5}, {"measurement": "Postemergence rating, Mustard", "setting": "Mustard; Rate of Appln. 2 lbs./acre", "result": 4}, {"measurement": "Postemergence rating, Mustard", "setting": "Mustard; Rate of Appln. 4 lbs./acre", "result": 5}, {"measurement": "Postemergence rating, Tomato", "setting": "Tomato; Rate of Appln. 1 lbs./acre", "result": 3}, {"measurement": "Postemergence rating, Tomato", "setting": "Tomato; Rate of Appln. 2 lbs./acre", "result": 5}, {"measurement": "Postemergence rating, Tomato", "setting": "Tomato; Rate of Appln. 4 lbs./acre", "result": 5}, {"measurement": "Postemergence rating, Pigweed", "setting": "Pigweed; Rate of Appln. 1 lbs./acre", "result": 5}, {"measurement": "Postemergence rating, Pigweed", "setting": "Pigweed; Rate of Appln. 2 lbs./acre", "result": 5}, {"measurement": "Postemergence rating, Pigweed", "setting": "Pigweed; Rate of Appln. 4 lbs./acre", "result": 5}]}]}
